# From patent publication US6566048B1, “Acetyl-COA-carboxylase from Candida albicans” (Syngenta Limited, priority 1997, dated 2003)
# Columns and labels:
# C. albicans B2630 = test: In-vitro antifungal activity, broth-dilution liquid MIC; assay type: cell-based; details: Candida albicans, 30° C., 48h, MIC determined visually, read-out: Liquid MIC (μg/ml) for Soraphen A
# Method: (§1) Compounds were tested over a concentration range of 1024-0.00098 μg/ml by a broth-dilution method in microtitre plates using doubling dilutions in YPD or YPGal (both containing 500 μg/l d-biotin). Stock solutions of inhibitors were prepared at 51.2 mg/ml in Dimethyl sulphoxide (DMSO) (final assay concentration of DMSO was 2% v/v). Each Yeast culture was added to the well to give a final 10^4 cfu/well. The plates were incubated at 30° C. for 48h and MIC's determined visually.
# S. cerevisiae Mey 134 = test: as above; assay type: cell-based; details: Saccharomyces cerevisiae, MEY134, 30° C., 48h, MIC determined visually, read-out: Liquid MIC (μg/ml) for Soraphen A
# Method: as §1
# S. cerevisiae CLS2-13 = test: as above; assay type: cell-based; details: Saccharomyces cerevisiae, CLS213, 30° C., 48h, MIC determined visually, read-out: Liquid MIC (μg/ml) for Soraphen A
# Method: as §1
# [1] = test system: S. cerevisiae PNS 120a 6C; test: as above; assay type: cell-based; details: Saccharomyces cerevisiae, PNS120A6C, 30° C., 48h, MIC determined visually, read-out: Liquid MIC (μg/ml) for Soraphen A
# Method: as §1
# [2] = test system: S. cerevisiae PNS 117b 6A; test: as above; assay type: cell-based; details: Saccharomyces cerevisiae, PNS117B6A, 30° C., 48h, MIC determined visually, read-out: Liquid MIC (μg/ml) for Soraphen A
# Method: as §1
# [3] = test system: S. cerevisiae PNS 117a 5C; test: as above; assay type: cell-based; details: Saccharomyces cerevisiae, PNS117A5C, 30° C., 48h, MIC determined visually, read-out: Liquid MIC (μg/ml) for Soraphen A
# Method: as §1
# [4] = test system: S. cerevisiae PNS 120b 1C; test: as above; assay type: cell-based; details: Saccharomyces cerevisiae, PNS120B1C, 30° C., 48h, MIC determined visually, read-out: Liquid MIC (μg/ml) for Soraphen A
# Method: as §1
# C. albicans ACC1 = details: isolated fully functional C. albicans ACC1
# Method: The assay was conducted in 96 well, flat bottomed polystyrene microtitre plates. All test and control samples were tested in duplicate in this assay.
# 100 μl of the ACCase enzyme preparation (in 50 mM Tris pH7.5 containing 1 mM EGTA, 1 mM EDTA (disodium salt), 1 mM DTT, 0.25 mM Pefabloc hydrochloride, 1 μM Leupeptin hemisulphate, 1 μM Pepstatin A, 0.5 μM Trypsin inhibitor, and 20% w/v glycerol) was added to each well of the microtitre plate. Each well contained either a 3 μl test sample made up in DMSO or 3 μl DMSO alone (NB. Final DMSO concentrations in the assay were 1.48% v/v). The microtitre plates were placed in a water bath maintained at 37° C. 10 μl of [^14C] NaHCO3 containing 9.25 kBq in 378 mM NaHCO3 was then added to each well. […]
# After the addition of the stop reagent the plates were left open in the water bath for a further 30 minutes to allow the ^14CO2 to escape. […] Radioactivity in the samples was then determined by scintillation counting (Wallac WinSpectral 1414, Turku, Finland).
# IC50's were calculated from the data using non-linear regression techniques available in the ORIGIN software package (Microcal Software Inc., Massachusetts, USA).
# [5] = target: ACCase preparation from S. cerevisiae PNS 117b 6A (Candida albicans, UniProt A0A1D8PRR7); test: In-vitro ACCase assay ([14C] NaHCO3 incorporation); assay type: biochemical, C. albicans; details: 37° C., 5 minutes, read-out: IC50 for Soraphen A (nM) against ACCase preparations
# ACCase preparation from S. cerevisiae PNS 117b 6A, sequence (A0A1D8PRR7 entry or part of it): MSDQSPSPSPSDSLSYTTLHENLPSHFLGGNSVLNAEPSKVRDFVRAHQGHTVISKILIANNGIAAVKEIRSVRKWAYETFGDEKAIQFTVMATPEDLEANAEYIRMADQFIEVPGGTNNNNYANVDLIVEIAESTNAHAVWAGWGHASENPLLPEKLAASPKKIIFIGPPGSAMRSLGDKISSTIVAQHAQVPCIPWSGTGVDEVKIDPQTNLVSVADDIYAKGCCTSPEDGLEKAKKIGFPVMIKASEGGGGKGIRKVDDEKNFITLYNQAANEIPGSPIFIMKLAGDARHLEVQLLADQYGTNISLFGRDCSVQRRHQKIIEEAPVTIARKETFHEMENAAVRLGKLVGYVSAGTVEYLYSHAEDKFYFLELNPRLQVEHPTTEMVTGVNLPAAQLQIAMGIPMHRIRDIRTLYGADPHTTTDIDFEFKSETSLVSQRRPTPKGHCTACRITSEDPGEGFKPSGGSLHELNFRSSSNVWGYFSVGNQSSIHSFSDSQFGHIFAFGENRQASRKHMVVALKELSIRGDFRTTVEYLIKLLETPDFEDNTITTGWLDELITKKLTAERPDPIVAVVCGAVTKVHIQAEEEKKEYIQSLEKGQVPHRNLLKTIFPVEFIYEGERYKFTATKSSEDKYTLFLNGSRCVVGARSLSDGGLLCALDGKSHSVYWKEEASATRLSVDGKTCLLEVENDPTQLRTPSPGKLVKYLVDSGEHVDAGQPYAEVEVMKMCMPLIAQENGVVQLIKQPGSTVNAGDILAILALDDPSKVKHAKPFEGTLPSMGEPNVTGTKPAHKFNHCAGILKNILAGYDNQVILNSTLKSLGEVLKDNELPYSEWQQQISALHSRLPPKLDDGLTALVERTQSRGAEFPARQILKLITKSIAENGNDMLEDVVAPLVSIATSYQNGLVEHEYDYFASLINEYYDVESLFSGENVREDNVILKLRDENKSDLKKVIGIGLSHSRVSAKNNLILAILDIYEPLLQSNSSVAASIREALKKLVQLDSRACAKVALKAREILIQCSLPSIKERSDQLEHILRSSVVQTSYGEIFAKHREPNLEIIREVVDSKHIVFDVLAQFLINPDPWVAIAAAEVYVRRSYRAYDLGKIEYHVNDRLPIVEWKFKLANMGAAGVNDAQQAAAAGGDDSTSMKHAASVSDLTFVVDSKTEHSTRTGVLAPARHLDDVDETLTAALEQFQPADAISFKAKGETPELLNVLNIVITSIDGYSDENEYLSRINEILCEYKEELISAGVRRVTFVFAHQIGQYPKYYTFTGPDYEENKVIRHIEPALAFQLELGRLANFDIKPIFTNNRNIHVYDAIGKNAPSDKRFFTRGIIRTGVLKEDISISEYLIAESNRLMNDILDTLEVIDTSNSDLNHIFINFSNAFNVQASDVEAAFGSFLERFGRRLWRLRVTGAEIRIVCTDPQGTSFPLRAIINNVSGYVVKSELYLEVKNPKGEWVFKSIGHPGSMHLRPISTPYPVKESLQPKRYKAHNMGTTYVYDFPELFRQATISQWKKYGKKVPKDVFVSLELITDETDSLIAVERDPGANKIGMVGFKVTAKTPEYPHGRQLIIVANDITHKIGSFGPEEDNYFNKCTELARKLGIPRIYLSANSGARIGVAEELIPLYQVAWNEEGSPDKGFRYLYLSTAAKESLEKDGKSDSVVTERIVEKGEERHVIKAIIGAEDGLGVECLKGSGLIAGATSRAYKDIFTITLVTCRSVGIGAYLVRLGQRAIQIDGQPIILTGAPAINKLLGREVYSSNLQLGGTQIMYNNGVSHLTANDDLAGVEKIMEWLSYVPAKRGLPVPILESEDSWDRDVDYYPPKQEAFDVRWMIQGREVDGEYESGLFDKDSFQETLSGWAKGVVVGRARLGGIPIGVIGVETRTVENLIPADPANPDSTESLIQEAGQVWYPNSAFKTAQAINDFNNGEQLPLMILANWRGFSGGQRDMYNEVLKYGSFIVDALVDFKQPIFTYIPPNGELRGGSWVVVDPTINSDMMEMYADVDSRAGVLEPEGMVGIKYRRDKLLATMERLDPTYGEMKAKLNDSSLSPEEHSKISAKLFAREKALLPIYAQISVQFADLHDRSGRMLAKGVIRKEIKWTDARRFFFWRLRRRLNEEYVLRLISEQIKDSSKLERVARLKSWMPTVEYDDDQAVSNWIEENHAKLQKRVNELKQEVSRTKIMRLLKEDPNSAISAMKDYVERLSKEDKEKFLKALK
# Method: (§2) Cultures of the appropriate yeast strains were grown to the exponential phase of growth (for Saccharomyces and Candida strains respectively). These were then harvested by centrifugation (4400 g, 10 min, 4° C.), washed twice in 700 ml of 50 mM Tris pH7.5 containing 20% w/v gylcerol, resuspending the cell pellet each time. […] The volume of buffer required was dependent on the total packed cell wet weight. (i.e. 1 ml buffer added per 6 gm of packed wet cell pellet).
# (§3) The cell paste was homogenised using a pre-cooled Bead-Beater (Biospec Products, Bartlesville, Okla. 74005) with 4×10 second Bursts, allowing 20 second intervals on ice. The preparation was then centrifuged at 31,180 g for 30 minutes. After centrifugation the supernatant was immediately decanted into a container, then aliquoted before snap freezing in liquid nitrogen.
# [6] = target: ACCase preparation from S. cerevisiae CLS2-13 (C. albicans ACC1 gene in Yep24) (Candida albicans, UniProt A0A1D8PRR7); test: In-vitro ACCase assay ([14C] NaHCO3 incorporation); assay type: biochemical; details: 37° C., 5 minutes, read-out: IC50 for Soraphen A (nM) against ACCase preparations
# ACCase preparation from S. cerevisiae CLS2-13 (C. albicans ACC1 gene in Yep24), sequence (A0A1D8PRR7 entry or part of it): as above
# Method: as §2, §3
# [7] = target: ACCase preparation from S. cerevisiae PNS 117a 5C (Candida albicans, UniProt A0A1D8PRR7); test: In-vitro ACCase assay ([14C] NaHCO3 incorporation); assay type: biochemical; details: 37° C., 5 minutes, read-out: IC50 for Soraphen A (nM) against ACCase preparations
# Method: as §2, §3
smiles,measurement,setting,value
CO[C@H]1CCCC[C@@H](c2ccccc2)OC(=O)[C@@H](C)[C@@]2(O)O[C@H]([C@@H](C)[C@H](O)[C@H]2OC)[C@@H](C)/C=C/[C@H]1OC [Soraphen A],MIC,C. albicans B2630,0.003 µg/mL
same,MIC,S. cerevisiae Mey 134,8 µg/mL
same,MIC,S. cerevisiae CLS2-13,2 µg/mL
same,MIC,[1],0.5 µg/mL
same,MIC,[2],4 µg/mL
same,MIC,[3],2 µg/mL
same,MIC,[4],0.125 µg/mL
same,inhibition by SoraphenA,C. albicans ACC1,100%
same,IC50,[5],13.1 nM
same,IC50,[6],2.5 nM
same,IC50,[7],17.5 nM
